# Measurements from patent US6440903B1, “Substituted 2,4-diamino-1,3,5-triazines as herbicides” (Bayer Aktiengesellschaft, priority 1996, dated 2002).
# Experiments:
# Format in all cases: in vivo
# Amaranthus = test: Post-emergence test; conditions: greenhouse, scored after three weeks; for pest or weed control at 250 g/ha / pest or weed control at 500 g/ha / pest or weed control at 1000 g/ha: Amaranthus, 504 h, read-out: % damage, Amaranthus; for pest or weed control at 1000 g/ha: 1000 g of ai./ha
# Experimental: (§1) Post-emergence Test Solvent: 5 parts by weight of acetone Emulsifier: 1 part by weight of alkylaryl polyglycol ether To produce a suitable preparation of active compound, 1 part by weight of active compound is mixed with the stated amount of solvent, the stated amount of emulsifier is added and the concentrate is diluted with water to the desired concentration. Test plants which have a height of 5-15 cm are sprayed with the preparation of active compound such that the particular amounts of active compounds desired are applied per unit area. The concentration of the spray liquor is chosen so that the particular amounts of active compound desired are applied in 1000 l of water/ha. After three weeks, the degree of damage to the plants is scored visually in % damage in comparison to the untreated control. The Figures Denote: 0%=no effect (like untreated control) 100%=total destruction
# Chenopodium = test: Post-emergence test; conditions: greenhouse, scored after three weeks; for pest or weed control at 250 g/ha / pest or weed control at 500 g/ha / pest or weed control at 1000 g/ha: Chenopodium, 504 h, read-out: % damage, Chenopodium; for pest or weed control at 1000 g/ha: 1000 g of ai./ha
# Experimental: as §1
# Viola = test: Post-emergence test; conditions: greenhouse, scored after three weeks; for pest or weed control at 250 g/ha / pest or weed control at 500 g/ha / pest or weed control at 1000 g/ha: 504 h, read-out: % damage, Viola; for pest or weed control at 1000 g/ha: 1000 g of ai./ha
# Experimental: as §1
# Setaria = test: Post-emergence test; conditions: greenhouse, scored after three weeks; for pest or weed control at 250 g/ha: 250 g of ai./ha
# Experimental: as §1
# Polygonum = test: Post-emergence test; conditions: greenhouse, scored after three weeks; for pest or weed control at 250 g/ha / pest or weed control at 500 g/ha / pest or weed control at 1000 g/ha: Polygonum, 504 h, read-out: % damage, Polygonum; for pest or weed control at 1000 g/ha: 1000 g of ai./ha
# Experimental: as §1
# Wheat = test: Post-emergence test; conditions: greenhouse, scored after three weeks; for plant injury at 250 g/ha / plant injury at 500 g/ha / plant injury at 1000 g/ha: Triticum aestivum, 504 h, read-out: % damage, Wheat; for plant injury at 250 g/ha / % damage, Wheat: 250 g of ai./ha; for plant injury at 500 g/ha: 500 g of ai./ha; for plant injury at 1000 g/ha: 1000 g of ai./ha
# Experimental: as §1
# weeds = test: Post-emergence test (summary in text); conditions: result in words
# Experimental: Solvent: 5 parts by weight of acetone
# Emulsifier: 1 part by weight of alkylaryl polyglycol ether
# To produce a suitable preparation of active compound, 1 part by weight of active compound is mixed with the stated amount of solvent, the stated amount of emulsifier is added and the concentrate is diluted with water to the desired concentration.
# Test plants which have a height of 5-15 cm are sprayed with the preparation of active compound such that the particular amounts of active compounds desired are applied per unit area. The concentration of the spray liquor is chosen so that the particular amounts of active compound desired are applied in 1000 l of water/ha.
# After three weeks, the degree of damage to the plants is scored visually in % damage in comparison to the untreated control.
# 0%=no effect (like untreated control)
# [1] = Setaria, 504 h, read-out: % damage, Setaria
# [2] = Setaria, 504 h, 500 g of ai./ha, read-out: % damage, Setaria
compound,measurement,setting,value
CC(Nc1nc(N)nc(C(F)(F)C(F)(F)F)n1)c1ccc(Cl)cc1 (stereo not drawn),pest or weed control at 250 g/ha,Amaranthus; 250 g of ai./ha,100%
same,pest or weed control at 250 g/ha,Chenopodium; 250 g of ai./ha,100%
same,pest or weed control at 250 g/ha,Viola; 250 g of ai./ha,100%
same,pest or weed control at 250 g/ha,Setaria; [1],100%
same,pest or weed control at 250 g/ha,Polygonum; 250 g of ai./ha,100%
same,plant injury at 250 g/ha,Wheat,10%
CC(=O)Nc1nc(NC(C)c2ccc(Cl)cc2)nc(C(F)(F)F)n1 (stereo not drawn),pest or weed control at 500 g/ha,Amaranthus; 500 g of ai./ha,100%
same,pest or weed control at 500 g/ha,Chenopodium; 500 g of ai./ha,100%
same,pest or weed control at 500 g/ha,Viola; 500 g of ai./ha,100%
same,pest or weed control at 500 g/ha,Setaria; [2],95%
same,pest or weed control at 500 g/ha,Polygonum; 500 g of ai./ha,100%
same,plant injury at 500 g/ha,Wheat,10%
CC(Nc1nc(N)nc(Cl)n1)c1ccc(Cl)cc1 (stereo not drawn) [Example 4],activity against weeds,weeds,strong activity
CC(Nc1nc(N)nc(Cl)n1)c1ccc(Cl)cc1 (stereo not drawn) [Example 5],activity against weeds,weeds,strong activity
CC(Nc1nc(N)nc(Cl)n1)c1ccc(Cl)cc1 (stereo not drawn) [Example 8],activity against weeds,weeds,strong activity
CC(Nc1nc(N)nc(C(F)(F)F)n1)c1ccc(Cl)cc1 (stereo not drawn) [Example 15],activity against weeds,weeds,strong activity
CC(Nc1nc(N)nc(C(F)(F)F)n1)c1ccc(Cl)cc1 (stereo not drawn) [Example 21],activity against weeds,weeds,strong activity
COc1ccc(C(C)Nc2nc(N)nc(C(F)(F)F)n2)cc1 (stereo not drawn) [Example 79],activity against weeds,weeds,strong activity
CCC(Nc1nc(N)nc(C(F)(F)F)n1)c1ccc(Cl)cc1 (stereo not drawn) [Example 86],activity against weeds,weeds,strong activity
CCC(Nc1nc(N)nc(C(F)(F)F)n1)c1ccc(Cl)cc1 (stereo not drawn) [Example 87],activity against weeds,weeds,strong activity
CCc1nc(N)nc(NC(C)c2ccc(Cl)cc2)n1 (stereo not drawn) [Example 91],activity against weeds,weeds,strong activity
CC(Nc1nc(N)nc(C(Cl)Cl)n1)c1ccc(Cl)cc1 (stereo not drawn) [Example 94],activity against weeds,weeds,strong activity
CC(Cl)c1nc(N)nc(NC(C)c2ccc(Cl)cc2)n1 (stereo not drawn) [Example 96],activity against weeds,weeds,strong activity
CC(Nc1nc(N)nc(C(C)(Cl)Cl)n1)c1ccc(Cl)cc1 (stereo not drawn) [Example 97],activity against weeds,weeds,strong activity
CCc1nc(N)nc(NC(C)c2ccc(Cl)cc2)n1 (stereo not drawn) [Example 153],activity against weeds,weeds,strong activity
CCc1nc(N)nc(NC(C)c2ccc(Cl)cc2)n1 (stereo not drawn) [Example 166],activity against weeds,weeds,strong activity
COCc1nc(N)nc(NC(C)c2ccc(Cl)cc2)n1 (stereo not drawn) [Example 170],activity against weeds,weeds,strong activity
CC(Cl)c1nc(N)nc(NC(C)c2ccc(Cl)cc2)n1 (stereo not drawn) [Example 171],activity against weeds,weeds,strong activity
COc1ccc(C(C)Nc2nc(N)nc(C(C)F)n2)cc1 (stereo not drawn) [Example 190],activity against weeds,weeds,strong activity
CSc1ccc(C(C)Nc2nc(N)nc(C(Cl)Cl)n2)cc1 (stereo not drawn) [drawing 113],pest or weed control at 1000 g/ha,Amaranthus,100%
same,pest or weed control at 1000 g/ha,Chenopodium,100%
same,pest or weed control at 1000 g/ha,Viola,100%
same,pest or weed control at 1000 g/ha,"Setaria; Setaria, 504 h, 1000 g of ai./ha, read-out: % damage, Setaria",90%
same,pest or weed control at 1000 g/ha,Polygonum,80%
same,plant injury at 1000 g/ha,Wheat,0%
CSc1ccc(C(C)Nc2nc(N)nc(C(C)(Cl)Cl)n2)cc1 (stereo not drawn) [drawing 114],pest or weed control at 500 g/ha,Amaranthus; 500 g of ai./ha,100%
same,pest or weed control at 500 g/ha,Chenopodium; 500 g of ai./ha,100%
same,pest or weed control at 500 g/ha,Viola; 500 g of ai./ha,100%
same,pest or weed control at 500 g/ha,Setaria; [2],80%
same,pest or weed control at 500 g/ha,Polygonum; 500 g of ai./ha,100%
same,plant injury at 500 g/ha,Wheat,0%
CCc1nc(N)nc(NC(C)c2ccc(Cl)cc2)n1 (stereo not drawn) [drawing 116],pest or weed control at 250 g/ha,Amaranthus; 250 g of ai./ha,100%
same,pest or weed control at 250 g/ha,Chenopodium; 250 g of ai./ha,100%
same,pest or weed control at 250 g/ha,Viola; 250 g of ai./ha,100%
same,pest or weed control at 250 g/ha,Setaria; [1],100%
same,pest or weed control at 250 g/ha,Polygonum; 250 g of ai./ha,100%
same,plant injury at 250 g/ha,Wheat,10%
CC(Nc1nc(N)nc(C(F)C(F)(F)F)n1)c1ccc(Cl)cc1 (stereo not drawn) [drawing 117],pest or weed control at 250 g/ha,Amaranthus; 250 g of ai./ha,100%
same,pest or weed control at 250 g/ha,Chenopodium; 250 g of ai./ha,100%
same,pest or weed control at 250 g/ha,Viola; 250 g of ai./ha,100%
same,pest or weed control at 250 g/ha,Setaria; [1],95%
same,pest or weed control at 250 g/ha,Polygonum; 250 g of ai./ha,100%
same,plant injury at 250 g/ha,Wheat,10%
COCc1nc(N)nc(NC(C)c2ccc(Cl)cc2)n1 (stereo not drawn) [drawing 118],pest or weed control at 250 g/ha,Amaranthus; 250 g of ai./ha,100%
same,pest or weed control at 250 g/ha,Chenopodium; 250 g of ai./ha,100%
same,pest or weed control at 250 g/ha,Viola; 250 g of ai./ha,100%
same,pest or weed control at 250 g/ha,Setaria; [1],80%
same,pest or weed control at 250 g/ha,Polygonum; 250 g of ai./ha,100%
same,plant injury at 250 g/ha,Wheat,10%
CC(Nc1nc(N)nc(C(Cl)Cl)n1)c1ccc(Cl)cc1 (stereo not drawn) [drawing 119],pest or weed control at 250 g/ha,Amaranthus; 250 g of ai./ha,100%
same,pest or weed control at 250 g/ha,Chenopodium; 250 g of ai./ha,100%
same,pest or weed control at 250 g/ha,Viola; 250 g of ai./ha,100%
same,pest or weed control at 250 g/ha,Setaria; [1],90%
same,pest or weed control at 250 g/ha,Polygonum; 250 g of ai./ha,100%
same,plant injury at 250 g/ha,Wheat,10%
CC(Cl)c1nc(N)nc(NC(C)c2ccc(Cl)cc2)n1 (stereo not drawn) [drawing 120],pest or weed control at 250 g/ha,Amaranthus; 250 g of ai./ha,100%
same,pest or weed control at 250 g/ha,Chenopodium; 250 g of ai./ha,100%
same,pest or weed control at 250 g/ha,Viola; 250 g of ai./ha,100%
same,pest or weed control at 250 g/ha,Setaria; [1],80%
same,pest or weed control at 250 g/ha,Polygonum; 250 g of ai./ha,100%
same,"% damage, Wheat",Wheat,0%
CC(Nc1nc(N)nc(C(C)(Cl)Cl)n1)c1ccc(Cl)cc1 (stereo not drawn) [drawing 121],pest or weed control at 250 g/ha,Amaranthus; 250 g of ai./ha,100%
same,pest or weed control at 250 g/ha,Chenopodium; 250 g of ai./ha,100%
same,pest or weed control at 250 g/ha,Viola; 250 g of ai./ha,100%
same,pest or weed control at 250 g/ha,Setaria; [1],80%
same,pest or weed control at 250 g/ha,Polygonum; 250 g of ai./ha,100%
same,plant injury at 250 g/ha,Wheat,10%
CCc1nc(N)nc(NC(C)c2ccc(Cl)cc2)n1 (stereo not drawn) [drawing 123],pest or weed control at 500 g/ha,Amaranthus; 500 g of ai./ha,100%
same,pest or weed control at 500 g/ha,Chenopodium; 500 g of ai./ha,100%
same,pest or weed control at 500 g/ha,Viola; 500 g of ai./ha,100%
same,pest or weed control at 500 g/ha,Setaria; [2],95%
same,pest or weed control at 500 g/ha,Polygonum; 500 g of ai./ha,100%
CCc1nc(N)nc(NC(C)c2ccc(Cl)cc2)n1 (stereo not drawn) [drawing 127],"% damage, Amaranthus",Amaranthus; 500 g of ai./ha,100%
same,"% damage, Chenopodium",Chenopodium; 500 g of ai./ha,100%
same,"% damage, Viola",Viola; 500 g of ai./ha,100%
same,"% damage, Setaria",Setaria; 500 g of ai./ha,100%
same,"% damage, Polygonum",Polygonum; 500 g of ai./ha,100%
COCc1nc(N)nc(NC(C)c2ccc(Cl)cc2)n1 (stereo not drawn) [drawing 130],"% damage, Amaranthus",Amaranthus; 250 g of ai./ha,100%
same,"% damage, Chenopodium",Chenopodium; 250 g of ai./ha,100%
same,"% damage, Viola",Viola; 250 g of ai./ha,100%
same,"% damage, Polygonum",Polygonum; 250 g of ai./ha,100%
same,"% damage, Wheat",Wheat,10%
COc1ccc(C(C)Nc2nc(N)nc(C(C)F)n2)cc1 (stereo not drawn) [drawing 136],pest or weed control at 250 g/ha,Amaranthus; 250 g of ai./ha,100%
same,pest or weed control at 250 g/ha,Chenopodium; 250 g of ai./ha,100%
same,pest or weed control at 250 g/ha,Viola; 250 g of ai./ha,95%
same,pest or weed control at 250 g/ha,Polygonum; 250 g of ai./ha,100%
same,plant injury at 250 g/ha,Wheat,10%
CCC(Nc1nc(N)nc(C(F)(F)F)n1)c1ccc(Cl)cc1 (stereo not drawn) [drawing 139],pest or weed control at 1000 g/ha,Amaranthus,100%
same,pest or weed control at 1000 g/ha,Chenopodium,100%
same,pest or weed control at 1000 g/ha,Viola,100%
same,pest or weed control at 1000 g/ha,Polygonum,100%
same,plant injury at 1000 g/ha,Wheat,10%
